What was measured:
Alternaria brassicae = assay: In vivo preventive test on Alternaria brassicae (leaf spot on radish or cabbage); conditions: 500 ppm of active ingredient, sprayed on young radish or cabbage plants 24 h before inoculation, evaluated 3 to 4 days after inoculation, read-out: efficacy
Method: B-1. […] The active ingredients were made soluble and homogenized in a mixture of Dimethyl sulfoxide/Acetone//Tween® 80 and then diluted in water to the desired concentration. The young plants of radish or cabbage were treated by spraying the active ingredient prepared as described above. Control plants were treated only with an aqueous solution of Acetone/Dimethyl sulfoxide/Tween® 80. After 24 hours, the plants were contaminated by spraying the leaves with an aqueous suspension of Alternaria brassicae spores.

Botrytis cinerea [1] = assay: Botrytis cinerea in vitro cell test; assay type: cell-based; conditions: 144 h, liquid culture, 6 days incubation, read-out: efficacy (inhibition of fungal growth); for inhibition at 20 ppm: 20 ppm of active ingredient; for inhibition at 50 µM: 50 μMol/l of active ingredient
Method: B-9. Botrytis cinerea In Vitro Cell Test • Solvent: DMSO • Culture medium: 1 g KH2PO4 (VWR), 1 g K2HPO4 (VWR), 0.5 g Urea (VWR), 3 g KNO3 (Prolabo), 10 g saccharose (VWR), 0.5 g MgSO4, 7H2O (Sigma), 0.07 g CaCl2, 2H2O (Prolabo), 0.2 mg MnSO4, H2O (Sigma), 0.6 mg CuSO4, 5H2O (Sigma), 7.9 mg ZnSO4, 7H2O (Sigma), 0.1 mg H3BO3 (Merck), 0.14 mg NaMoO4, 2H2O (Sigma), 2 mg thiamine (Sigma), 0.1 mg biotine (VWR), 4 mg FeSO4, 7H2O (Sigma), QSP 1 liter • Inoculum: spore suspension Fungicides were solubilized in DMSO and the solution used to prepare the required range of concentrations. […] A spore suspension of B. cinerea was prepared and diluted to the desired spore density. Fungicides were evaluated for their ability to inhibit spore germination and mycelium growth in liquid culture assay. The compounds were added in the desired concentration to the culture medium with spores. After 6 days incubation, fungi-toxicity of compounds was determined by spectrometric measurement of mycelium growth. Inhibition of fungal growth was determined by comparing the absorbance values in wells containing the fungicides with the absorbance in control wells without fungicides.

Botrytis cinerea [2] = assay: In vivo preventive test on Botrytis cinerea (grey mould); conditions: 500 ppm of active ingredient, sprayed on young gherkin or cabbage plants 24 h before inoculation, evaluated 4 to 5 days after inoculation, read-out: efficacy
Method: The active ingredients were made soluble and homogenized in a mixture of Dimethyl sulfoxide/Acetone//Tween® 80 and then diluted in water to the desired concentration. The young plants of gherkin or cabbage were treated by spraying the active ingredient prepared as described above. Control plants were treated only with an aqueous solution of Acetone/Dimethyl sulfoxide/Tween® 80. After 24 hours, the plants were contaminated by spraying the leaves with an aqueous suspension of Botrytis cinerea spores.

[3] = Measurement of Log P values by HPLC on reversed phase columns (EEC directive 79/831 Annex V.A8); assay type: physicochemical; conditions: Table 1, compounds of formula (I); method [a]: LC-UV, acidic range, 0.1% formic acid in water and acetonitrile
[4] = tested on: Colletotrichum lindemuthianum; assay: Colletotrichum lindemuthianum in vitro cell test; assay type: cell-based; conditions: 144 h, liquid culture, 6 days incubation, read-out: efficacy (inhibition of fungal growth); for inhibition at 20 ppm: 20 ppm of active ingredient; for inhibition at 50 µM: 50 μMol/l of active ingredient
Method: (§1) B-7. Colletotrichum lindemuthianum In Vitro Cell Test • Solvent: DMSO • Culture medium: 14.6 g anhydrous D-glucose (VWR), 7.1 g Mycological Peptone (Oxoid), 1.4 g granulated Yeast Extract (Merck), QSP 1 liter • Inoculum: spores suspension Fungicides were solubilized in DMSO and the solution used to prepare the required range of concentrations. […] A spore suspension of C. lindemuthianum was prepared and diluted to the desired spore density. Fungicides were evaluated for their ability to inhibit spores germination and mycelium growth in liquid culture assay. The compounds were added in the desired concentration to the culture medium with spores. After 6 days incubation, fungi-toxicity of compounds was determined by spectrometric measurement of mycelium growth. Inhibition of fungal growth was determined by comparing the absorbance values in wells containing the fungicides with the absorbance in control wells without fungicides.

Alternaria alternata = Alternaria alternata in vitro cell test; assay type: cell-based; conditions: 120 h, liquid culture, 5 days incubation, read-out: efficacy (inhibition of fungal growth); for inhibition at 50 µM: 50 μMol/l of active ingredient
Method: as §1, with “B-5. Alternaria alternata In” for “B-7. Colletotrichum lindemuthianum In”, “of A. alternata” for “of C. lindemuthianum”, “inhibit spore” for “inhibit spores”, “After 5” for “After 6”

Pyricularia oryzae = assay: microbe, parasite or virus in culture; assay type: cell-based; conditions: 120 h; for inhibition at 50 µM: read-out: efficacy (inhibition of fungal growth), 50 μMol/l of active ingredient, liquid culture, 5 days incubation
Pyrenophora teres = Pyrenophora teres in vitro cell test; assay type: cell-based; conditions: 144 h, liquid culture, 6 days incubation, read-out: efficacy (inhibition of fungal growth); for inhibition at 50 µM: 50 μMol/l of active ingredient
Method: as §1, with “B-8. Pyrenophora teres In” for “B-7. Colletotrichum lindemuthianum In”, “Inoculum: spore” for “Inoculum: spores”, “of P. teres” for “of C. lindemuthianum”, “inhibit spore” for “inhibit spores”

Fusarium culmorum = Fusarium culmorum in vitro cell test; assay type: cell-based; conditions: 120 h, 50 μMol/l of active ingredient, liquid culture, 5 days incubation, read-out: efficacy (inhibition of fungal growth)
Method: B-10. Fusarium culmorum In Vitro Cell Test • Solvent: DMSO • Culture medium: 1 g KH2PO4 (VWR), 1 g K2HPO4 (VWR), 0.5 g Urea (VWR), 3 g KNO3 (Prolabo), 10 g saccharose (VWR), 0.5 g MgSO4, 7H2O (Sigma), 0.07 g CaCl2, 2H2O (Prolabo), 0.2 mg MnSO4, H2O (Sigma), 0.6 mg CuSO4, 5H2O (Sigma), 7.9 mg ZnSO4, 7H2O (Sigma), 0.1 mg H3BO3 (Merck), 0.14 mg NaMoO4, 2H2O (Sigma), 2 mg thiamine (Sigma), 0.1 mg biotine (VWR), 4 mg FeSO4, 7H2O (Sigma), QSP 1 liter • Inoculum: spores suspension
Fungicides were solubilized in DMSO and the solution used to prepare the required range of concentrations. The final concentration of DMSO used in the assay was ≤1%.
A spore suspension of F. culmorum was prepared and diluted to the desired spore density.
Fungicides were evaluated for their ability to inhibit spore germination and mycelium growth in liquid culture assay. The compounds were added in the desired concentration to the culture medium with spores. After 5 days incubation, fungi-toxicity of compounds was determined by spectrometric measurement of mycelium growth. Inhibition of fungal growth was determined by comparing the absorbance values in wells containing the fungicides with the absorbance in control wells without fungicides.

COc1cccc(Sc2nnc3ccccc3c2C2=NOC[C@@H](Cc3ccc(C)cc3C)N2)c1 (racemic) [Compound I-006]
pest or weed control at 500 ppm (Alternaria brassicae): 90 to 100%
inhibition at 20 ppm (Botrytis cinerea [1]): 90 to 100%
pest or weed control at 500 ppm (Botrytis cinerea [2]): 90 to 100%
chromatographic logP [3]: 3.84
inhibition at 20 ppm [4]: 90 to 100%

Cc1cccc(Sc2nnc(Cl)cc2C2=NOC[C@@H](Cc3ccc(Cl)cc3Cl)N2)c1 (racemic) [Compound I-014]
inhibition at 20 ppm (Botrytis cinerea [1]): 90 to 100%
inhibition at 20 ppm (Alternaria alternata; 20 ppm of active ingredient): 70 to 79%
chromatographic logP [3]: 4.59

Clc1cccc(Sc2nnc(Cl)cc2C2=NOC[C@@H](Cc3ccc(Cl)cc3Cl)N2)c1 (racemic) [Compound I-015]
pest or weed control at 500 ppm (Alternaria brassicae): 80 to 89%
inhibition at 20 ppm (Botrytis cinerea [1]): 90 to 100%
inhibition at 20 ppm (Pyricularia oryzae; read-out: efficacy (inhibition of fungal growth), 20 ppm of active ingredient, liquid culture, 5 days incubation): 90 to 100%
pest or weed control at 500 ppm (Botrytis cinerea [2]): 90 to 100%
chromatographic logP [3]: 4.73
inhibition at 20 ppm (Pyrenophora teres; 20 ppm of active ingredient): 90 to 100%
inhibition at 20 ppm [4]: 90 to 100%

COc1ccc(Sc2nnc(C)c(C)c2C2=NOC[C@@H](c3cc(C)sc3C)N2)cc1 (racemic) [Compound I-049]
inhibition at 50 µM (Alternaria alternata): 70 to 79%
chromatographic logP [3]: 3.11
inhibition at 50 µM (Pyrenophora teres): 70 to 79%

Cc1ccc([C@H]2CON=C(c3c(Sc4ccc(F)cc4)nnc4ccccc34)N2)s1 (racemic) [Compound I-060]
pest or weed control at 500 ppm (Alternaria brassicae): 70 to 79%
inhibition at 50 µM (Botrytis cinerea [1]): 90 to 100%
pest or weed control at 500 ppm (Botrytis cinerea [2]): 90 to 100%
chromatographic logP [3]: 3.29
inhibition at 50 µM (Fusarium culmorum): 70 to 79%
inhibition at 50 µM (Pyrenophora teres): 70 to 79%

Cc1ccc([C@H]2CON=C(c3c(Sc4ccc(F)c(Cl)c4)nnc4ccccc34)N2)s1 (racemic) [Compound I-068]
pest or weed control at 500 ppm (Alternaria brassicae): 80 to 89%
inhibition at 50 µM (Botrytis cinerea [1]): 90 to 100%
pest or weed control at 500 ppm (Botrytis cinerea [2]): 90 to 100%
chromatographic logP [3]: 3.74
inhibition at 50 µM (Pyrenophora teres): 70 to 79%
inhibition at 50 µM [4]: 90 to 100%

Cc1cc([C@@H]2CON=C(c3c(Sc4cccc(Cl)c4F)nnc(C)c3C)N2)c(C)s1 (racemic) [Compound I-071]
inhibition at 50 µM (Botrytis cinerea [1]): 90 to 100%
inhibition at 50 µM (Alternaria alternata): 90 to 100%
inhibition at 50 µM (Pyricularia oryzae): 90 to 100%
chromatographic logP [3]: 3.58
inhibition at 50 µM (Fusarium culmorum): 90 to 100%
inhibition at 50 µM (Pyrenophora teres): 90 to 100%
inhibition at 50 µM [4]: 90 to 100%

Cc1cc([C@H]2CON=C(c3c(Sc4ccc(F)c(Cl)c4)nnc(C)c3C)N2)c(C)s1 (racemic) [Compound I-088]
pest or weed control at 500 ppm (Alternaria brassicae): 70 to 79%
inhibition at 50 µM (Botrytis cinerea [1]): 90 to 100%
pest or weed control at 500 ppm (Botrytis cinerea [2]): 90 to 100%
chromatographic logP [3]: 3.62
inhibition at 50 µM [4]: 90 to 100%

Cc1cccc(Sc2nnc(C)c(C)c2C2=NOC[C@H](c3cc(C)sc3C)N2)n1 (racemic) [Compound I-089]
pest or weed control at 500 ppm (Alternaria brassicae): 70 to 79%
inhibition at 50 µM (Botrytis cinerea [1]): 70 to 79%
pest or weed control at 500 ppm (Botrytis cinerea [2]): 80 to 89%
chromatographic logP [3]: 2.56

Cc1ccc(C2CON=C(c3c(Sc4cccc(Cl)c4F)nnc(C)c3C)N2)s1 (racemic) [Compound I-103]
inhibition at 50 µM (Botrytis cinerea [1]): 90 to 100%
inhibition at 50 µM (Alternaria alternata): 90 to 100%
inhibition at 50 µM (Pyricularia oryzae): 90 to 100%
chromatographic logP [3]: 3.21
inhibition at 50 µM (Fusarium culmorum): 80 to 89%
inhibition at 50 µM (Pyrenophora teres): 90 to 100%
inhibition at 50 µM [4]: 90 to 100%

Cc1ccc(C2CON=C(c3c(Sc4cccc(Cl)c4)nnc(C)c3C)N2)s1 (racemic) [Compound I-104]
inhibition at 50 µM (Botrytis cinerea [1]): 90 to 100%
inhibition at 50 µM (Alternaria alternata): 90 to 100%
inhibition at 50 µM (Pyricularia oryzae): 90 to 100%
chromatographic logP [3]: 3.14
inhibition at 50 µM (Fusarium culmorum): 90 to 100%
inhibition at 50 µM (Pyrenophora teres): 90 to 100%
inhibition at 50 µM [4]: 90 to 100%

Cc1cc([C@H]2CON=C(c3c(Sc4ccc(C)c(C)c4)nnc(C)c3C)N2)c(C)s1 (racemic) [Compound I-111]
inhibition at 50 µM (Botrytis cinerea [1]): 90 to 100%
inhibition at 50 µM (Alternaria alternata): 70 to 79%
pest or weed control at 500 ppm (Botrytis cinerea [2]): 80 to 89%
chromatographic logP [3]: 3.64
inhibition at 50 µM (Fusarium culmorum): 90 to 100%
inhibition at 50 µM (Pyrenophora teres): 90 to 100%
inhibition at 50 µM [4]: 90 to 100%

Cc1cc([C@@H]2CON=C(c3c(Sc4cccc(Cl)c4Cl)nnc(C)c3C)N2)c(C)s1 (racemic) [Compound I-118]
inhibition at 50 µM (Botrytis cinerea [1]): 90 to 100%
inhibition at 50 µM (Alternaria alternata): 90 to 100%
inhibition at 50 µM (Pyricularia oryzae): 80 to 89%
chromatographic logP [3]: 3.7
inhibition at 50 µM (Pyrenophora teres): 90 to 100%
inhibition at 50 µM [4]: 80 to 89%

Cc1cc([C@@H]2CON=C(c3c(Sc4ccccc4C)nnc(C)c3C)N2)c(C)s1 (racemic) [Compound I-121]
pest or weed control at 500 ppm (Alternaria brassicae): 80 to 89%
inhibition at 50 µM (Botrytis cinerea [1]): 90 to 100%
pest or weed control at 500 ppm (Botrytis cinerea [2]): 90 to 100%
chromatographic logP [3]: 3.29

Cc1cc([C@@H]2CON=C(c3c(Sc4ccc5ccccc5c4)nnc(C)c3C)N2)c(C)s1 (racemic) [Compound I-122]
inhibition at 50 µM (Alternaria alternata): 70 to 79%
chromatographic logP [3]: 3.68
inhibition at 50 µM (Fusarium culmorum): 90 to 100%
inhibition at 50 µM (Pyrenophora teres): 80 to 89%
inhibition at 50 µM [4]: 70 to 79%

Cc1ccc([C@H]2CON=C(c3c(Sc4ccc(F)c(F)c4)nnc4ccccc34)N2)s1 (racemic) [Compound I-124]
pest or weed control at 500 ppm (Alternaria brassicae): 80 to 89%
inhibition at 50 µM (Botrytis cinerea [1]): 90 to 100%
inhibition at 50 µM (Pyricularia oryzae): 70 to 79%
pest or weed control at 500 ppm (Botrytis cinerea [2]): 90 to 100%
chromatographic logP [3]: 3.44
inhibition at 50 µM (Fusarium culmorum): 80 to 89%
inhibition at 50 µM [4]: 70 to 79%

Cc1ccc([C@@H]2CON=C(c3c(Sc4cccc(Cl)c4Cl)nnc(C)c3C)N2)s1 (racemic) [Compound I-136]
inhibition at 50 µM (Botrytis cinerea [1]): 90 to 100%
inhibition at 50 µM (Alternaria alternata): 80 to 89%
inhibition at 50 µM (Pyricularia oryzae): 70 to 79%
chromatographic logP [3]: 3.31
inhibition at 50 µM (Pyrenophora teres): 90 to 100%

Reference: patent US20250042886A1, “BIS(HETERO)ARYL THIOETHER OXADIAZINES AS FUNGICIDAL COMPOUNDS” (Bayer Aktiengesellschaft, priority 2021, published 2025)
